Each molecule was assayed against CDK2/Cyclin E1 (Homo sapiens (Human), UniProt P24941) (assay: CDK2/Cyclin E1 HTRF enzyme activity assay (Example A)). Details: 1 mM ATP.
Type: biochemical
Experimental: Assays were conducted in white 384-well polystyrene plates in a final reaction volume of 8 μL. […] HTRF signals were read after 1 hour at room temperature on a PHERAstar FS plate reader (BMG Labtech). Data was analyzed with IDBS XLFit and GraphPad Prism 5.0 software using a three or four parameter dose response curve to determine IC50 for each compound.

Structure (SMILES) | IC50
Cc1nnn(C)c1-c1ccc(-n2cnc(-c3nc(NC4CCN(S(C)(=O)=O)CC4)ncc3C(F)(F)F)c2)c(Cl)c1 [Example 120, 4-(1-(2-Chloro-4-(1,4-dimethyl-1H-1,2,3-triazol-5-yl)phenyl)-1H-imidazol-4-yl)-N-(1-(methylsulfonyl)-piperidin-4-yl)-5-(trifluoromethyl)-pyrimidin-2-amine] | ≤ 50 nM
Cn1ncnc1-c1ccc(-n2cnc(-c3nc(NC4CCN(S(C)(=O)=O)CC4)ncc3C(F)(F)F)c2)c(Cl)c1 [Example 121, 4-(1-(2-Chloro-4-(1-methyl-1H-1,2,4-triazol-5-yl)phenyl)-1H-imidazol-4-yl)-N-(1-(methylsulfonyl)-piperidin-4-yl)-5-(trifluoromethyl)-pyrimidin-2-amine] | ≤ 50 nM
Cn1nncc1-c1ccc(-n2cnc(-c3nc(NC4CCN(S(C)(=O)=O)CC4)ncc3C(F)(F)F)c2)c(Cl)c1 [Example 122, 4-(1-(2-Chloro-4-(1-methyl-1H-1,2,3-triazol-5-yl)phenyl)-1H-imidazol-4-yl)-N-(1-(methyl-sulfonyl)piperidin-4-yl)-5-(trifluoro-methyl)pyrimidin-2-amine] | ≤ 50 nM
Cc1ncn(C)c1-c1ccc(-n2cnc(-c3nc(NC4CCN(S(C)(=O)=O)CC4)ncc3C(F)(F)F)c2)c(Cl)c1 [Example 123, 4-(1-(2-Chloro-4-(1,4-dimethyl-1H-imidazol-5-yl)phenyl)-1H-imidazol-4-yl)-N-(1-(methylsulfonyl)-piperidin-4-yl)-5-(trifluoromethyl)-pyrimidin-2-amine] | ≤ 50 nM
Cn1cncc1-c1ccc(-n2cnc(-c3nc(NC4CCN(S(C)(=O)=O)CC4)ncc3C(F)(F)F)c2)c(Cl)c1 [Example 124, 4-(1-(2-Chloro-4-(1-methyl-1H-imidazol-5-yl)phenyl)-1H-imidazol-4-yl)-N-(1-(methylsulfonyl)-piperidin-4-yl)-5-(trifluoromethyl)-pyrimidin-2-amine] | ≤ 50 nM
Cn1ncnc1-c1ccc(-n2cnc(-c3nc(NC4CCN(S(C)(=O)=O)CC4)ncc3C(F)(F)F)c2)c(C#N)c1 [Example 125, 5-(1-Methyl-1H-1,2,4-triazol-5-yl)-2-(4-(2-((1-(methylsulfonyl)piperidin-4-yl)amino)-5-(trifluoromethyl)pyrimidin-4-yl)-1H-imidazol-1-yl)benzonitrile] | ≤ 50 nM
CS(=O)(=O)N1CCC(Nc2ncc(C(F)(F)F)c(-c3cn(-c4ccc(OC(F)F)cc4C#N)cn3)n2)CC1 [Example 126, 5-(Difluoromethoxy)-2-(4-(2-((1-(methylsulfonyl)piperidin-4-yl)amino)-5-(trifluoromethyl)pyrimidin-4-yl)-1H-imidazol-1-yl)benzonitrile] | ≤ 50 nM
Cc1nn(C)cc1-c1ccc(-n2cc(-c3nc(NC4CCN(S(C)(=O)=O)CC4)ncc3C(F)(F)F)nc2C)c(F)c1 [Example 127, 4-(1-(4-(1,3-Dimethyl-1H-pyrazol-4-yl)-2-fluorophenyl)-2-methyl-1H-imidazol-4-yl)-N-(1-(methylsulfonyl)piperidin-4-yl)-5-(trifluoromethyl)pyrimidin-2-amine] | ≤ 50 nM
Cc1nc(-c2nc(NC3CCN(S(C)(=O)=O)CC3)ncc2C(F)(F)F)cn1-c1ccc(-c2cnnn2C)cc1F [Example 128, 4-(1-(2-Fluoro-4-(1-methyl-1H-1,2,3-triazol-5-yl)phenyl)-2-methyl-1H-imidazol-4-yl)-N-(1-(methylsulfonyl)piperidin-4-yl)-5-(trifluoromethyl)pyrimidin-2-amine] | ≤ 50 nM
Cc1nc(-c2nc(NC3CCN(S(C)(=O)=O)CC3)ncc2C(F)(F)F)cn1-c1ccc(-c2ccnn2C)cc1F [Example 129, 4-(1-(2-Fluoro-4-(1-methyl-1H-pyrazol-5-yl)phenyl)-2-methyl-1H-imidazol-4-yl)-N-(1-(methylsulfonyl)-piperidin-4-yl)-5-(trifluoromethyl)-pyrimidin-2-amine] | ≤ 50 nM
Cc1nc(C(N)=O)ccc1-n1cnc(-c2nc(NC3CCN(S(C)(=O)=O)CC3)ncc2C(F)(F)F)c1 [Example 130, 6-Methyl-5-(4-(2-((1-(methylsulfonyl)piperidin-4-yl)amino)-5-(trifluoromethyl)pyrimidin-4-yl)-1H-imidazol-1-yl)picolinamide] | ≤ 50 nM
[2H]C([2H])([2H])NC(=O)c1ccc(-n2cnc(-c3nc(NC4CCN(S(C)(=O)=O)CC4)ncc3C(F)(F)F)c2)c(C)n1 [Example 131, 6-Methyl-N-(methyl-d)-5-(4-(2-((1-(methylsulfonyl)piperidin-4-yl)amino)-5-(trifluoromethyl)pyrimidin-4-yl)-1H-imidazol-1-yl)picolinamide] | ≤ 50 nM
CNC(=O)c1ccc(-n2cnc(-c3nc(NC4CCN(S(C)(=O)=O)CC4)ncc3C(F)(F)F)c2)c(C)n1 [Example 132, N,6-Dimethyl-5-(4-(2-((1-(methyl-sulfonyl)piperidin-4-yl)amino)-5-(trifluoromethyl)-pyrimidin-4-yl)-1H-imidazol-1-yl)picolinamide] | ≤ 50 nM
Cc1nc(C(=O)NC(C)C)ccc1-n1cnc(-c2nc(NC3CCN(S(C)(=O)=O)CC3)ncc2C(F)(F)F)c1 [Example 133, N-Isopropyl-6-methyl-5-(4-(2-((1-(methyl-sulfonyl)piperidin-4-yl)amino)-5-(trifluoromethyl)-pyrimidin-4-yl)-1H-imidazol-1-yl)picolinamide] | ≤ 50 nM
CCNC(=O)c1ccc(-n2cnc(-c3nc(NC4CCN(S(C)(=O)=O)CC4)ncc3C(F)(F)F)c2)c(C)n1 [Example 134, N-Ethyl-6-methyl-5-(4-(2-((1-(methyl-sulfonyl)piperidin-4-yl)amino)-5-(trifluoromethyl)-pyrimidin-4-yl)-1H-imidazol-1-yl)picolinamide] | ≤ 50 nM
CN(C)C(=O)c1ccc(-n2cnc(-c3nc(NC4CCN(S(C)(=O)=O)CC4)ncc3C(F)(F)F)c2)c(Cl)c1 [Example 135, 3-Chloro-N,N-dimethyl-4-(4-(2-((1-(methylsulfonyl)piperidin-4-yl)amino)-5-(trifluoromethyl)pyrimidin-4-yl)-1H-imidazol-1-yl)benzamide] | ≤ 50 nM
CN(C)C(=O)c1ccc(-n2cnc(-c3nc(NC4CCN(S(C)(=O)=O)CC4)ncc3C(F)(F)F)c2)c(Cl)c1F [Example 136, 3-Chloro-2-fluoro-N,N-dimethyl-4-(4-(2-((1-(methylsulfonyl)piperidin-4-yl)amino)-5-(trifluoromethyl)pyrimidin-4-yl)-1H-imidazol-1-yl)benzamide] | ≤ 50 nM
CNC(=O)c1ccc(-n2cnc(-c3nc(NC4CCN(S(C)(=O)=O)CC4)ncc3C(F)(F)F)c2)c(Cl)c1Cl [Example 137, 2,3-Dichloro-N-methyl-4-(4-(2-((1-(methylsulfonyl)piperidin-4-yl)amino)-5-(trifluoromethyl)pyrimidin-4-yl)-1H-imidazol-1-yl)benzamide] | ≤ 50 nM
CS(=O)(=O)N1CCC(Nc2ncc(C(F)(F)F)c(-c3cn(-c4ccc(N5CC[C@@H](O)C5)cc4Cl)cn3)n2)CC1 [Example 138, (R)-1-(3-Chloro-4-(4-(2-((1-(methylsulfonyl)piperidin-4-yl)amino)-5-(trifluoromethyl)pyrimidin-4-yl)-1H-imidazol-1-yl)phenyl)pyrrolidin-3-ol] | ≤ 50 nM
CS(=O)(=O)N1CCC(Nc2ncc(C(F)(F)F)c(-c3cn(-c4ccc(N5CC[C@H](O)C5)cc4Cl)cn3)n2)CC1 [Example 139, (S)-1-(3-Chloro-4-(4-(2-((1-(methyl-sulfonyl)piperidin-4-yl)amino)-5-(trifluoromethyl)-pyrimidin-4-yl)-1H-imidazol-1-yl)-phenyl)pyrrolidin-3-ol] | ≤ 50 nM
C[C@H]1CN(c2ccc(-n3cnc(-c4nc(NC5CCN(S(C)(=O)=O)CC5)ncc4C(F)(F)F)c3)c(Cl)c2)CCN1 [Example 140, (S)-4-(1-(2-Chloro-4-(3-methyl-piperazin-1-yl)-phenyl)-1H-imidazol-4-yl)-N-(1-(methyl-sulfonyl)piperidin-4-yl)-5-(trifluoro-methyl)pyrimidin-2-amine] | ≤ 50 nM
C[C@@H]1CN(c2ccc(-n3cnc(-c4nc(NC5CCN(S(C)(=O)=O)CC5)ncc4C(F)(F)F)c3)c(Cl)c2)CCN1 [Example 141, (R)-4-(1-(2-Chloro-4-(3-methyl-piperazin-1-yl)-phenyl)-1H-imidazol-4-yl)-N-(1-(methyl-sulfonyl)piperidin-4-yl)-5-(trifluoro-methyl)pyrimidin-2-amine] | ≤ 50 nM
CN1CCN(c2ccc(-n3cnc(-c4nc(NC5CCN(S(C)(=O)=O)CC5)ncc4C(F)(F)F)c3)c(Cl)c2)CC1=O [Example 142, 4-(3-Chloro-4-(4-(2-((1-(methyl-sulfonyl)piperidin-4-yl)amino)-5-(trifluoromethyl)-pyrimidin-4-yl)-1H-imidazol-1-yl)phenyl)-1-methylpiperazin-2-one] | ≤ 50 nM
CN(C)C1CCN(c2ccc(-n3cnc(-c4nc(NC5CCN(S(C)(=O)=O)CC5)ncc4C(F)(F)F)c3)c(Cl)c2)C1 (centres unmarked) [Example 143, 4-(1-(2-Chloro-4-(3-(dimethylamino)-pyrrolidin-1-yl)-phenyl)-1H-imidazol-4-yl)-N-(1-(methylsulfonyl)-piperidin-4-yl)-5-(trifluoromethyl)-pyrimidin-2-amine] | ≤ 50 nM
COCCNc1ccc(-n2cnc(-c3nc(NC4CCN(S(C)(=O)=O)CC4)ncc3C(F)(F)F)c2)c(Cl)c1 [Example 144, 4-(1-(2-Chloro-4-((2-methoxyethyl)-amino)phenyl)-1H-imidazol-4-yl)-N-(1-(methylsulfonyl)-piperidin-4-yl)-5-(trifluoromethyl)-pyrimidin-2-amine] | ≤ 50 nM
CN(C)C1CCN(c2ccc(-n3cnc(-c4nc(NC5CCN(S(C)(=O)=O)CC5)ncc4C(F)(F)F)c3)c(Cl)c2)CC1 [Example 145, 4-(1-(2-Chloro-4-(4-(dimethylamino)-piperidin-1-yl)-phenyl)-1H-imidazol-4-yl)-N-(1-(methylsulfonyl)-piperidin-4-yl)-5-(trifluoromethyl)-pyrimidin-2-amine] | ≤ 50 nM

Source: patent US11427567B2, “Imidazolyl pyrimidinylamine compounds as CDK2 inhibitors” (Incyte Corporation, priority 2019, dated 2022)
